PubChem BioAssay (NCI)
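Following 48 hours of exposure in 96-well plates, responses at five concentrations were used to interpolate endpoints linearly. At the GI50, growth is halved. TGI: concentration producing complete growth inhibition.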

How the values were obtained:
Experiment in all cases: NCI-60 cell line screen, 48 h
SK-OV-3 ovarian = test system: SK-OV-3 ovarian
IGROV1 ovarian = test system: IGROV1 ovarian
MCF7 breast = test system: MCF7 breast
COLO 205 colon = test system: COLO 205 colon
T-47D breast = test system: T-47D breast
MDA-MB-435 = test system: MDA-MB-435
OVCAR-8 ovarian = test system: OVCAR-8 ovarian
SK-MEL-28 melanoma = test system: SK-MEL-28 melanoma
HCT-15 colon = test system: HCT-15 colon
M14 melanoma = test system: M14 melanoma
HCC-2998 colon = test system: HCC-2998 colon
CAKI-1 renal = test system: CAKI-1 renal
PC-3 prostate = test system: PC-3 prostate
UACC-257 melanoma = test system: UACC-257 melanoma
KM12 colon = test system: KM12 colon
HOP-92 NSCLC = test system: HOP-92 NSCLC
UACC-62 melanoma = test system: UACC-62 melanoma
NCI-H226 lung = test system: NCI-H226 lung
CCRF-CEM leukemia = test system: CCRF-CEM leukemia
SNB-19 CNS = test system: SNB-19 CNS
U251 CNS = test system: U251 CNS
HCT-116 colon = test system: HCT-116 colon
SF-268 CNS = test system: SF-268 CNS
SNB-75 CNS = test system: SNB-75 CNS
SN12C renal = test system: SN12C renal
SR leukemia = test system: SR leukemia
NCI-H23 lung = test system: NCI-H23 lung
RXF 393 renal = test system: RXF 393 renal
UO-31 renal = test system: UO-31 renal
MOLT-4 leukemia = test system: MOLT-4 leukemia
BT-549 breast = test system: BT-549 breast
SF-295 CNS = test system: SF-295 CNS
786-0 renal = test system: 786-0 renal
SF-539 CNS = test system: SF-539 CNS
DU-145 prostate = test system: DU-145 prostate
MDA-MB-231 breast = test system: MDA-MB-231 breast
ACHN renal = test system: ACHN renal
HOP-62 NSCLC = test system: HOP-62 NSCLC
RPMI-8226 leukemia = test system: RPMI-8226 leukemia
NCI-H460 lung = test system: NCI-H460 lung
SW-620 colon = test system: SW-620 colon
MALME-3M melanoma = test system: MALME-3M melanoma
OVCAR-3 ovarian = test system: OVCAR-3 ovarian
HL-60(TB) leukemia = test system: HL-60(TB) leukemia
NCI-H522 lung = test system: NCI-H522 lung
OVCAR-5 ovarian = test system: OVCAR-5 ovarian
NCI/ADR-RES ovarian = test system: NCI/ADR-RES ovarian
A549 NSCLC = test system: A549 NSCLC
LOX IMVI melanoma = test system: LOX IMVI melanoma
A498 renal = test system: A498 renal
SK-MEL-5 melanoma = test system: SK-MEL-5 melanoma
TK-10 renal = test system: TK-10 renal
SK-MEL-2 melanoma = test system: SK-MEL-2 melanoma
OVCAR-4 ovarian = test system: OVCAR-4 ovarian
EKVX NSCLC = test system: EKVX NSCLC
K-562 leukemia = test system: K-562 leukemia
HS 578T breast = test system: HS 578T breast

`C[C@H]1CCC/C=C/[C@@H]2C[C@H](O)C[C@H]2[C@H](O)[C@@H](S(=O)C[C@@H](N)C(=O)O)CC(=O)O1` (stereo partly drawn) showed a GI50 (SK-OV-3 ovarian) of 117 nM, a TGI (SK-OV-3 ovarian) of over 82800 nM and a GI50 (IGROV1 ovarian) of 238 nM. For the same compound, the TGI (IGROV1 ovarian) was 19100 nM, the GI50 (MCF7 breast) was 30.3 nM and the GI50 (COLO 205 colon) was 14.4 nM. For the same compound, the TGI (COLO 205 colon) was 29.3 nM, the GI50 (T-47D breast) was 244 nM and the TGI (T-47D breast) was 992 nM. The GI50 (MDA-MB-435) was 48 nM, the TGI (MDA-MB-435) was over 100000 nM and the GI50 (OVCAR-8 ovarian) was 32.3 nM. It also gave a TGI (OVCAR-8 ovarian) of 2840 nM, a GI50 (SK-MEL-28 melanoma) of 29.1 nM and a TGI (SK-MEL-28 melanoma) of over 100000 nM. The GI50 (HCT-15 colon) was 137 nM, the TGI (HCT-15 colon) was 2260 nM and the GI50 (M14 melanoma) was 42.9 nM. The TGI (M14 melanoma) was over 100000 nM, the GI50 (HCC-2998 colon) was 30.3 nM and the TGI (HCC-2998 colon) was 256 nM. It also gave a GI50 (CAKI-1 renal) of 210 nM, a TGI (PC-3 prostate) of over 26200 nM and a GI50 (UACC-257 melanoma) of under 18.2 nM. The TGI (UACC-257 melanoma) was over 100000 nM, the GI50 (KM12 colon) was under 14 nM and the TGI (KM12 colon) was 60.5 nM. The GI50 (HOP-92 NSCLC) was 42.8 nM, the TGI (HOP-92 NSCLC) was 1650 nM and the GI50 (UACC-62 melanoma) was 29.7 nM. The TGI (UACC-62 melanoma) was over 100000 nM, the GI50 (NCI-H226 lung) was 19.3 nM and the GI50 (CCRF-CEM leukemia) was 50.8 nM. The TGI (CCRF-CEM leukemia) was 50200 nM, the TGI (SNB-19 CNS) was over 100000 nM and the GI50 (U251 CNS) was 70.9 nM. For the same compound, the TGI (U251 CNS) was over 100000 nM, the GI50 (HCT-116 colon) was 32.5 nM and the TGI (HCT-116 colon) was 1690 nM. For the same compound, the GI50 (SF-268 CNS) was 20.7 nM, the TGI (SF-268 CNS) was over 19900 nM and the TGI (SNB-75 CNS) was 19.4 nM. The GI50 (SN12C renal) was 156 nM, the TGI (SN12C renal) was 1830 nM and the GI50 (SR leukemia) was 82 nM. For the same compound, the GI50 (NCI-H23 lung) was 86.2 nM, the TGI (NCI-H23 lung) was 8130 nM and the GI50 (RXF 393 renal) was 20200 nM. For the same compound, the TGI (RXF 393 renal) was 86700 nM, the GI50 (UO-31 renal) was 37 nM and the TGI (UO-31 renal) was 1620 nM. It also gave a GI50 (MOLT-4 leukemia) of 46.4 nM, a GI50 (BT-549 breast) of 86.2 nM and a TGI (BT-549 breast) of over 100000 nM. The GI50 (SF-295 CNS) was 109 nM, the TGI (SF-295 CNS) was over 100000 nM and the GI50 (786-0 renal) was under 18.1 nM. The GI50 (SF-539 CNS) was 35.8 nM, the TGI (SF-539 CNS) was over 100000 nM and the GI50 (DU-145 prostate) was 434 nM. It also gave a TGI (DU-145 prostate) of over 100000 nM, a GI50 (MDA-MB-231 breast) of 25.1 nM and a TGI (MDA-MB-231 breast) of 52.8 nM. The GI50 (ACHN renal) was 83.3 nM, the TGI (ACHN renal) was 669 nM and the GI50 (HOP-62 NSCLC) was 241 nM. The TGI (HOP-62 NSCLC) was over 100000 nM, the GI50 (RPMI-8226 leukemia) was 395 nM and the TGI (RPMI-8226 leukemia) was over 95300 nM. The GI50 (NCI-H460 lung) was 245 nM, the TGI (NCI-H460 lung) was over 100000 nM and the GI50 (SW-620 colon) was 53.3 nM. The TGI (MALME-3M melanoma) was 25.7 nM, the GI50 (OVCAR-3 ovarian) was 42.5 nM and the GI50 (HL-60(TB) leukemia) was 142 nM. For the same compound, the GI50 (NCI-H522 lung) was 175 nM, the TGI (NCI-H522 lung) was 870 nM and the GI50 (OVCAR-5 ovarian) was over 100000 nM. For the same compound, the TGI (OVCAR-5 ovarian) was over 100000 nM, the GI50 (NCI/ADR-RES ovarian) was under 16.5 nM and the TGI (NCI/ADR-RES ovarian) was 384 nM. The TGI (A549 NSCLC) was over 100000 nM, the GI50 (LOX IMVI melanoma) was 20.3 nM and the TGI (LOX IMVI melanoma) was 63.6 nM. For the same compound, the GI50 (A498 renal) was 30.9 nM, the TGI (A498 renal) was 149 nM and the GI50 (SK-MEL-5 melanoma) was 20.9 nM. The TGI (SK-MEL-5 melanoma) was 107 nM, the GI50 (TK-10 renal) was 199 nM and the GI50 (SK-MEL-2 melanoma) was 1290 nM. The GI50 (OVCAR-4 ovarian) was 44.5 nM, the TGI (OVCAR-4 ovarian) was over 75000 nM and the GI50 (EKVX NSCLC) was 84.2 nM. The TGI (EKVX NSCLC) was over 52300 nM, the GI50 (K-562 leukemia) was 884 nM and the TGI (K-562 leukemia) was over 100000 nM. It also gave a GI50 (HS 578T breast) of 15.2 nM and a TGI (HS 578T breast) of over 100000 nM.
